Experimental data published in patent US20260027380A1, “TECHNIQUES FOR MAGNETIC NANOCLUSTER-BASED COMBINATION THERAPY” (William Marsh Rice University, priority 2022, published 2026).

Experiments:
Assay type in all cases: cell-based, murine
[1] = system: MC-38 cells; assay: Quantification of intracellular GSH (GSH-Glo); conditions: without AMF, 37° C. for 4 h
Experimental: Glutathione (GSH) is an antioxidant that plays an important role in the scavenging of intracellular free radicals and protecting the cells against oxidative damage. GSH depletion will disrupt the redox homeostasis and lead to oxidative stress and eventual cell death. MC-38 cells were treated with 300 μg Fe/mL of IONC or IONC-AAPH and subjected to AMF for 2 hours. The intracellular GSH was quantified after 2 hours of incubation at 37° C. Intracellular GSH was also measured for cells treated with AAPH, IONC, or IONC-AAPH, respectively, without AMF and incubated at 37° C. for 4 h. The intracellular GSH was quantified using a luminescence-based GSH-Glo glutathione assay. FIG. 11 illustrates a GSH depletion measurement of the MC-38 cells 2 hours after treatment. […] In contrast, treating cells with IONC-AAPH under AMF (i.e., with both heating and free radicals) decreased the GSH/GSSG ratio to 55% of that in the control cells.
Quantification of intracellular GSH: MC-38 cells were seeded in 4-compartment cell culture dishes at a density of 1×10^5 cells per compartment and cultured overnight. Then the cells were treated with 300 μg Fe/mL of IONC-AAPH or IONC at 37° C. or under AMF for 2 h. Two hours after the treatment, the culture medium was removed and the intracellular GSH was quantified using a luminescence-based GSH-Glo Glutathione Assay according to the manufacturer's instructions.

[2] = system: MC-38 cells; assay: Evaluation of F-actin morphology (phalloidin staining); conditions: without heating (no AMF)
Excerpt: To examine the effect of heating and free radicals on the actin cytoskeleton, actin filaments (F-actin) were stained with fluorescent phalloidin. […] In cells subjected to heating and free radicals but still showing phalloidin staining, the actin filaments were further retracted and more condensed compared with cells under heating only. FIG. 8 illustrates a quantification of MC-38 cells with F-actin structure in the above-described morphological analysis. […] In the cells with phalloidin staining, the actin filaments were further retracted and more condensed compared with the hyperthermia only group.
Evaluation of F-actin morphology: The F-actin morphology of MC-38 cells was evaluated by phalloidin staining. MC-38 cells were seeded in 4-compartment cell culture dishes and cultured overnight. The cells were then treated with 300 μg Fe/mL of IONC-AAPH or IONC at 37° C. or under AMF for 90 min. Four hours after the treatment, the cells were fixed, permeabilized, and blocked as described above. Then the cells were incubated with Alexa Fluor 568-labeled phalloidin for 30 min at room temperature, followed by staining with Hoechst 33342 for 10 min at room temperature. Images were collected using a Nikon Al-Rsi confocal microscope.

[3] = system: MC-38 cells; assay: Detection of intracellular free radicals (H2DCFDA); conditions: without AMF
Experimental: Additionally, intracellular free radical generation by IONC-AAPH was measured using 2′,7′-dichlorodihydrofluorescein diacetate (H2DCFDA) as an intracellular free radical probe. H2DCFDA is a non-fluorescent cell-permeant compound. Upon oxidation by free radicals, H2DCFDA is converted to a highly fluorescent 2′,7′-dichlorofluorescein (DCF). MC-38 cells (murine colon adenocarcinoma cell line) were pre-incubated with IONC or IONC-AAPH (at 300 μg Fe/mL concentration) for 1 h to allow internalization into cells. The intracellular IONC and IONC-AAPH were 0.79±0.16 and 0.87±0.12 pg Fe/cell, respectively, as quantified by a ferrozine-based colorimetric assay. After internalization, the cells were exposed to AMF for 1 h. The intracellular free radicals in the MC-38 cells were then examined with H2DCFDA through fluorescence microscopy and flow cytometry. FIG. 4 illustrates a flow cytometry analysis of intracellular free radicals in MC-38 cells detected via fluorescence from DCF. Further, FIG. 5 is a graph illustrating the quantification of intracellular free radicals (e.g., quantification of the mean fluorescence of DCF). The data in FIG. 5 represents the mean DCF fluorescence of each group +the standard error of mean (s.e.m.).
Detection of intracellular free radicals: The intracellular generation of free radicals was determined using H2DCFDA probe. […]

[4] = system: MC-38 cells; assay: Lipid peroxidation (MDA level); conditions: without AMF
Experimental: Further, the effect of IONC-AAPH induced heat and free radicals on lipids was quantified by measuring the level of malondialdehyde (MDA). Malondialdehyde (MDA) is one of the final products of lipid peroxidation. MDA is a widely used biomarker of oxidative stress. Accordingly, the extent of lipid peroxidation after IONC-AAPH treatment was measured via MDA levels. FIG. 12 illustrates a quantification of MDA levels in MC-38 cells 2 hours after treatment. It was observed that the MC-38 cells treated with free AAPH, IONC, and IONC-AAPH, respectively, without AMF, as well as cells treated with IONC under AMF had some increase in MDA levels compared with that of control cells, as shown in FIG. 12. The low levels of lipid peroxidation in these groups may have resulted from the free radicals generated from the slow decomposition of AAPH at 37° C., or the IONC induced fenton/fenton-like reaction, or their combination (IONC-AAPH without AMF).
Determination of lipid peroxidation: The lipid peroxidation of MC-38 cells was determined by measuring the production of malondialdehyde (MDA). MC-38 cells cultured in 4-compartment cell culture dishes were treated with 300 μg Fe/mL of IONC-AAPH or IONC at 37° C. or under AMF for 2 h. Two hours post the treatment, the cells were lysed, and the MDA levels were quantified using a fluorescence-based MDA Assay Kit following the manufacturer's instructions.

In the case of `CC(C)(N=NC(C)(C)C(=N)N)C(=N)N.Cl.Cl` [AAPH, 2,2′-azobis(2-amidinopropane) dihydrochloride], the “change in GSH to GSSG ratio” value [1] is reported as “did not affect the GSH to GSSG ratio”, the F-actin morphology [2] is reported as “well organized and elongated” and the “intracellular free radicals (DCF fluorescence)” value [3] is reported as “negligible fluorescence”. For the same molecule, the “MDA level vs control cells” value [4] was “some increase”.
